Results: paper PMC7036871, “Identification and Characterization of pantocin wh-1, a Novel Cyclic Polypeptide Produced by Pantoea dispersa W18” (Molecules, 2020)
Entries after “also recorded” stand apart in the source; their conditions may differ. Where a SMILES comes first, the peptide text is derived from it.

Key:
M. tuberculosis H37Ra = assay type: cell-based, Mycobacterium tuberculosis; design: key: -: no inhibitory activity; +: Inhibit the growth of less than 10% amount of the initial bacteria; ++: Inhibit the growth of less than 50% amount of the initial bacteria; +++: Inhibit the growth of initial bacteria completely; conditions: M. tuberculosis Ra, medium 7H9
M. smegmatis mc^2 155 = assay: Time kill study; assay type: cell-based, Mycobacterium smegmatis
Protocol: (§1) In this paper, the microporous dilution method was used to detect the antibacterial spectrum of pantocin wh-1 against Gram-negative and -positive bacteria. […] The time kill studies were determined over 8 h with M. smegmatis mc^2 155 being exposed to 0.5, 1, 2, or 4 × MIC of pantocin wh-1. […] At 2 × MIC and 4 × MIC, pantocin wh-1 caused bacterial eradication was completed approximately after 4 h.
For detection of the time kill study, 100 μL of the indicator strain in exponential phase were added to tubes containing 5 mL of the modified 7H9 medium with pantocin wh-1 at 0.5, 1, 2, and 4 × MIC. No pantocin wh-1 was added in the control tube, then incubated at 37 °C for 8 h. At the end of each time period, tenfold serial dilutions were prepared with 0.5 mM phosphate buffer, and 100 μL cultures were plated in triplicate onto the 7H10 plates. For anti-tuberculosis activities in vivo, an auto-luminescent strain of M. tuberculosis H37Ra (AlRa) described by Tianyu Zhang was used to assess the efficacy of pantocin wh-1 in a mouse model. The relative light unit (RLU) count was determined to parallel CFU counts during the active phase of bacterial growth. AlRa with OD600 of 0.1 was injected into female BALB/c mice by tail vein. The day after injection (Day 0), RLU values were detected for 6 days in triplicate.

trypsin = assay: Effect of enzymes on antibacterial activity: trypsin; assay type: in vitro ADME
Source text: (§2) Furthermore, the antibacterial activity of pantocin wh-1 also retained nearly 100% of the initial activity within a broad pH range (pH 2–12).
(§3) The effect of various enzymes, pH, and temperature on pantocin wh-1 activity was detected as described by J.-M. Chobert et al. with a slight modification. Proteinase K, trypsin, catalase, lysozyme, DNAse, and RNAse were used to test the antibacterial activity of pantocinwh-1. To analyze the effect of different pH values on the antibacterial activity of pantocin wh-1, the sample of pantocin wh-1 was exposed to buffer with a pH value of 2–12 for 1 h at 25 °C. The effect of temperature on the anti-mycobacterial activity of pantocin wh-1 was determined by incubating pantocin wh-1 at 50 °C and 100 °C for 60 min, as well as at 121 °C for 15 min, and then detecting the bactericidal activity against M. smegmatis mc^2 155.

[1] = Effect of pH on antibacterial activity; assay type: physicochemical; conditions: for Residual activity: compared with antimicrobial activity before the treatment
Source text: as §2, §3

[2] = Antimicrobial spectrum, microporous dilution method; assay type: cell-based; design: key: -: no inhibitory activity; +: Inhibit the growth of less than 10% amount of the initial bacteria; ++: Inhibit the growth of less than 50% amount of the initial bacteria; +++: Inhibit the growth of initial bacteria completely; conditions: White aureus 8799, medium LB
Protocol: as §1
(§4) The antibacterial activity of the pantocin wh-1 was detected by the microscale optical density assay (MODA) method. Briefly, 90 μL of the dilutions of pantocin wh-1, 100 μL 2 × 7H9 medium, and 10 μL of a log phase indicator strain were co-incubated in the 96-well plate at 37 °C for 48 h. For control groups, 90 μL of the dilutions of pantocin wh-1 were replaced by an equal volume of sterile water. After incubation, the 96 well microplate was measured by a microplate reader at a 600 nm wavelength (Biotek synergyH1, Biotek, Winooski, VT, USA). The amount of pantocin wh-1 produced by P. dispersa W18 was determined using two fold dilutions. […] The results were expressed in AU/mL. The MIC was defined as the last dilution of pantocin wh-1 sufficient to prevent indicator strain growth in vitro.

Bacillus cereus = assay: as above; assay type: cell-based; design: key: -: no inhibitory activity; +: Inhibit the growth of less than 10% amount of the initial bacteria; ++: Inhibit the growth of less than 50% amount of the initial bacteria; +++: Inhibit the growth of initial bacteria completely; conditions: medium LB
Protocol: as §1, §4

Dysgalactiae = assay: as above; assay type: cell-based; design: key: -: no inhibitory activity; +: Inhibit the growth of less than 10% amount of the initial bacteria; ++: Inhibit the growth of less than 50% amount of the initial bacteria; +++: Inhibit the growth of initial bacteria completely; conditions: medium BHI
Protocol: as §1, §4

P. aeruginosa = assay: as above; assay type: cell-based; design: key: -: no inhibitory activity; +: Inhibit the growth of less than 10% amount of the initial bacteria; ++: Inhibit the growth of less than 50% amount of the initial bacteria; +++: Inhibit the growth of initial bacteria completely; conditions: medium LB
Protocol: as §1, §4

S. aureus 21A = assay: as above; assay type: cell-based; design: key: -: no inhibitory activity; +: Inhibit the growth of less than 10% amount of the initial bacteria; ++: Inhibit the growth of less than 50% amount of the initial bacteria; +++: Inhibit the growth of initial bacteria completely; conditions: medium LB
Protocol: as §1, §4

S. aureus AM025 = assay: as above; assay type: cell-based; design: key: -: no inhibitory activity; +: Inhibit the growth of less than 10% amount of the initial bacteria; ++: Inhibit the growth of less than 50% amount of the initial bacteria; +++: Inhibit the growth of initial bacteria completely; conditions: S. aureus AM025, medium LB
Protocol: as §1, §4

S. aureus B30 = assay: as above; assay type: cell-based; design: key: -: no inhibitory activity; +: Inhibit the growth of less than 10% amount of the initial bacteria; ++: Inhibit the growth of less than 50% amount of the initial bacteria; +++: Inhibit the growth of initial bacteria completely; conditions: S. aureus B30, medium LB
Protocol: as §1, §4

S. aureus B31 = assay: as above; assay type: cell-based; design: key: -: no inhibitory activity; +: Inhibit the growth of less than 10% amount of the initial bacteria; ++: Inhibit the growth of less than 50% amount of the initial bacteria; +++: Inhibit the growth of initial bacteria completely; conditions: S. aureus B31, medium LB
Protocol: as §1, §4

L .monocytogenes = assay: as above; assay type: cell-based, Listeria monocytogenes
Protocol: as §1, §4

Klebsiella = assay: as above; assay type: cell-based
Protocol: as §1, §4

CSCC[C@@H]1NC(=O)[C@H](C(C)C)NC(=O)[C@H](Cc2c[nH]c3ccccc23)NC(=O)[C@H](C(C)C)NC(=O)[C@H](C)NC(=O)[C@H](CS)NC(=O)[C@H](CC(N)=O)NC(=O)[C@H](Cc2ccccc2)NC(=O)CNC(=O)[C@H](Cc2ccc(O)cc2)NC(=O)CNC(=O)[C@H](Cc2ccccc2)NC(=O)[C@H](C(C)C)NC(=O)[C@H](Cc2ccc(O)cc2)NC(=O)[C@H](CS)NC(=O)[C@H](Cc2c[nH]c3ccccc23)NC1=O [pantocin wh-1] (cyclo(AVWVMWCYVFGYGFNC))
Inhibition activity (M. tuberculosis H37Ra): +++
decline in colony forming units (CFU) (M. smegmatis mc^2 155; 0.5 and 1 × MIC, within the first 2 h, followed by bacterial regeneration to near the initial concentration): > 3 log
time to completed bacterial eradication (M. smegmatis mc^2 155; 2 × MIC and 4 × MIC): ~4 h
inhibitory activity after trypsin (trypsin; trypsin): not completely inactivated; also recorded: partial sensitivity
Residual activity (trypsin; trypsin treatment, compared with antimicrobial activity before the treatment): 27%
retained initial antibacterial activity ([1]; broad pH range (pH 2–12)): ~100%
Residual activity ([1]; pH2-6, buffer 1 h at 25 °C): 90%
Residual activity ([1]; pH6-8, buffer 1 h at 25 °C): 100%
Residual activity ([1]; pH8-12, buffer 1 h at 25 °C): 85%
Inhibition activity [2]: -
Inhibition activity (Bacillus cereus): -
Inhibition activity (Dysgalactiae): -
Inhibition activity (P. aeruginosa): -
Inhibition activity (S. aureus 21A): -
Inhibition activity (S. aureus AM025): -
Inhibition activity (S. aureus B30): -
Inhibition activity (S. aureus B31): -
Inhibition activity (L .monocytogenes; L .monocytogenes, medium BHI): + (Inhibit the growth of less than 10% amount of the initial bacteria)
inhibitory activity (L .monocytogenes; Listeria monocytogenes): partial inhibitory activity
inhibitory activity (Klebsiella): partial inhibitory activity
